Results taken from patent publication US20240131167A1, “EGFR Degraders and Associated Methods of Use” (BeiGene Switzerland GmbH, priority 2021, published 2024).
Blank lines part the entries; values can stand above or below the molecule they belong to.

Experiments:
[1] = tested on: EGFR (Del19/T790M/C797S) in H1975-clone #28 cells; experiment: Cell degradation of EGFR, HTRF assay, H1975-clone #28 cells; type: cell-based; conditions: H1975-clone #28 (Del19/T790M/C797S, homozygous), 16 h treatment; for DC50: HTRF; for Dmax H1975 #28: maximum percentage of inhibition (degradation)
Method: (§1) BaF3-LTC (L858R/T790M/C797S) cells are treated with compounds diluted in 0.2% DMSO cell culture medium and incubate for 16 h, 37° C., 5% CO2. H1975-#28 cells are treated with compounds diluted in 0.2% DMSO cell culture medium on day 2, incubate for 16 h, 37° C., 5% CO2, the final concentration of compounds in all assay is start with 10 uM, 4-fold dilution, total 8 doses were included.
(§2) After 16 h treatment, add HTRF lysis buffer to each well; seal the plate and incubate 1 hour at room temperature on a plate shaker. Once the cells are lysed, 16 μL of cell lysate are transferred to a PE 384-well HTRF detection plate: 4 μL of pre-mixed HTRF antibodies are added to each well; Cover the plate with a plate sealer, spin 1000 rpm for 1 min, Incubate overnight at room temperature; Read on BMG PheraStar with HTRF protocol (337 nm-665 nm-620 nm).
(§3) The inhibition (degradation) percentage of the compound was calculated by the following equation: […]
(§4) The IC50 (DC50) value of a compound can be obtained by fitting the following equation
(§5) Y=Bottom+(TOP−Bottom)/(1+((IC50/X)^hillslope))
(§6) Wherein, X and Y are known values, and IC50. Hillslope, Top and Bottom are the parameters obtained by fitting with software. Y is the inhibition percentage (calculated from the equation), X is the concentration of the compound; IC50 is the concentration of the compound when the 50% inhibition is reached. The smaller the IC50 value is, the stronger the inhibitory ability of the compound is. Vice versa, the higher the IC50 value is, the weaker the ability the inhibitory ability of the compound is; Hillslope represents the slope of the fitted curve, generally around 1*; Bottom represents the minimum value of the curve obtained by data fitting, which is generally 0%±20%. Top represents the maximum value of the curve obtained by data fitting, which is generally 100%±20%. The experimental data were fitted by calculating and analyzing with Dotmatics data analysis software.

[2] = molecular target: T1, EGFR (L858R/T790M/C797S) in BaF3-LTC cells (Homo sapiens, UniProt P00533, C797S/L858R/T790M); experiment: Cell degradation of EGFR, HTRF assay, BaF3-LTC cells; type: cell-based; conditions: 16 h treatment; for DC50: HTRF; for Dmax: maximum percentage of inhibition (degradation)
T1 construct: expressed in transfected cells; host or cells: BaF3-LTC
Method: as §1, §2, §3, §4, §5, §6

T1 sequence (P00533 25-1210 T790M/C797S/L858R): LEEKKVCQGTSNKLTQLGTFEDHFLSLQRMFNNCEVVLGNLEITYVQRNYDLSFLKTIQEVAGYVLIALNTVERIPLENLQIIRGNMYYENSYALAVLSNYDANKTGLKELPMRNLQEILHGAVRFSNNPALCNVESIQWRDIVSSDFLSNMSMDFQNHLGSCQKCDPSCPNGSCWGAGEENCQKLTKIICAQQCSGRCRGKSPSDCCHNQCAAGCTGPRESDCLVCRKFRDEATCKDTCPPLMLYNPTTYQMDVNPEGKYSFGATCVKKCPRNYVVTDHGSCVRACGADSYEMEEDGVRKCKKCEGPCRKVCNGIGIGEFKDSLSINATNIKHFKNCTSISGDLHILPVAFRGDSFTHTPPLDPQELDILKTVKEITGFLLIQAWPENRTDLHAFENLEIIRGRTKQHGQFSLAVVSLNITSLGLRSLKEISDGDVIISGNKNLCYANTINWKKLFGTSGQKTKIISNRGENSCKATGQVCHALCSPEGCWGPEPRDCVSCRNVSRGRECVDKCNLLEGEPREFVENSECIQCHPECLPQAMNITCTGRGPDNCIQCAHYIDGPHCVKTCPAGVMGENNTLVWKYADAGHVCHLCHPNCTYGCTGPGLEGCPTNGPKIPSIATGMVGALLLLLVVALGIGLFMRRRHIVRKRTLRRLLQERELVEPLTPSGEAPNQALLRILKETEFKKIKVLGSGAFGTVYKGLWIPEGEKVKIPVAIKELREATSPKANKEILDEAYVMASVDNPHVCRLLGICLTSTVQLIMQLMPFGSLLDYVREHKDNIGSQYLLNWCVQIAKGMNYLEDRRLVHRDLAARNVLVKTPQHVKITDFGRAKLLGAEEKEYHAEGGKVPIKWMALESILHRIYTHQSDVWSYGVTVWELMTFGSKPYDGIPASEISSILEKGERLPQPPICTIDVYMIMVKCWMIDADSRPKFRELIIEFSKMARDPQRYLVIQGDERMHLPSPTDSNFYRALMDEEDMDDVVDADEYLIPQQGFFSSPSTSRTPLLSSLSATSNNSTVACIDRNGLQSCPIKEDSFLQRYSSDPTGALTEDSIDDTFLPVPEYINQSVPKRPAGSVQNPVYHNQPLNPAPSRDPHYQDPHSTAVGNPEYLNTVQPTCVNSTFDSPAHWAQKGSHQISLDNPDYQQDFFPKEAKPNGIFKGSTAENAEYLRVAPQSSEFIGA

SMILES: CCc1cc(Nc2ncc(Br)c(Nc3ccccc3P3(=O)CCCC3)n2)c(OC)cc1N1CCC(N2CCN(C(=O)[C@@H]3CCN(c4cc(F)c(C5CCC(=O)NC5=O)c(F)c4)C3)CC2)CC1 (stereo partly drawn) [Example 111, 3-(4-((R)-3-(4-(1-(4-((5-bromo-4-((2-(1-oxidophospholan-1-yl)phenyl)amino)pyrimidin-2-yl)amino)-2-ethyl-5-methoxyphenyl)piperidin-4-yl)piperazine-1-carbonyl)pyrrolidin-1-yl)-2,6-difluorophenyl)piperidine-2,6-dione]
DC50 [1]: 4.31 nM
Dmax H1975 #28 [1]: 87.16%
DC50 [2]: 26.8 nM
Dmax [2]: 90.3%

SMILES: CCc1cc(Nc2ncc(Br)c(Nc3ccccc3P3(=O)CCCC3)n2)c(OC)cc1N1CCC(N2CCN(CCc3cc(F)c(C4CCC(=O)NC4=O)c(F)c3)CC2)CC1 (stereo not shown) [Example 147, 3-(4-(2-(4-(1-(4-((5-bromo-4-((2-(1-oxidophospholan-1-yl)phenyl)amino)pyrimidin-2-yl)amino)-2-ethyl-5-methoxyphenyl)piperidin-4-yl)piperazin-1-yl)ethyl)-2,6-difluorophenyl)piperidine-2,6-dione]
DC50 [1]: 3.15 nM
Dmax H1975 #28 [1]: 82.21%
DC50 [2]: 75.1 nM
Dmax [2]: 86.6%

SMILES: CCc1cc(Nc2ncc(Br)c(Nc3ccccc3P3(=O)CCCC3)n2)c(OC)cc1N1CCC(N2CCN(C(=O)C3CN(c4cc(F)c(C5CCC(=O)NC5=O)c(F)c4)C3)CC2)CC1 (stereo not shown) [Example 148, 3-(4-(3-(4-(1-(4-((5-bromo-4-((2-(1-oxidophospholan-1-yl)phenyl)amino)pyrimidin-2-yl)amino)-2-ethyl-5-methoxyphenyl)piperidin-4-yl)piperazine-1-carbonyl)azetidin-1-yl)-2,6-difluorophenyl)piperidine-2,6-dione]
DC50 [1]: 2.99 nM
Dmax H1975 #28 [1]: 78.19%
DC50 [2]: 19.8 nM
Dmax [2]: 90.2%

The next lines start with results.

DC50 [1]: 1.34 nM
DC50 [2]: 3.46 nM
Dmax [2]: 90.8%
SMILES: CCc1cc(Nc2ncc(Br)c(Nc3ccc4nc(C)ccc4c3P3(=O)CCCC3)n2)c(OC)cc1N1CCC(N2CCN(CCc3cccc4c3n(C)c(=O)n4C3CCC(=O)NC3=O)CC2)CC1 (stereo not shown) [Example 68, 3-(4-(2-(4-(1-(4-((5-bromo-4-((2-methyl-5-(1-oxidophospholan-1-yl)quinolin-6-yl)amino)pyrimidin-2-yl)amino)-2-ethyl-5-methoxyphenyl)piperidin-4-yl)piperazin-1-yl)ethyl)-3-methyl-2-oxo-2,3-dihydro-1H-benzo[d]imidazol-1-yl)piperidine-2,6-dione]
Dmax H1975 #28 [1]: 85.88%

DC50 [1]: 1.38 nM
DC50 [2]: 2.51 nM
Dmax [2]: 88.6%
SMILES: CCc1cc(Nc2ncc(Br)c(Nc3ccc4nc(C)ccc4c3P3(=O)CCCC3)n2)c(OC)cc1N1CCC(N2CCN(CCc3ccc4c(c3)oc(=O)n4C3CCC(=O)NC3=O)CC2)CC1 (stereo not shown) [Example 71, 3-(6-(2-(4-(1-(4-((5-bromo-4-((2-methyl-5-(1-oxidophospholan-1-yl)quinolin-6-yl)amino)pyrimidin-2-yl)amino)-2-ethyl-5-methoxyphenyl)piperidin-4-yl)piperazin-1-yl)ethyl)-2-oxobenzo[d]oxazol-3(2H)-yl)piperidine-2,6-dione]
Dmax H1975 #28 [1]: 72.97%

DC50 [1]: 0.66 nM
DC50 [2]: 7.52 nM
Dmax [2]: 89.9%
SMILES: CCc1cc(Nc2ncc(Br)c(Nc3ccc4nc(C)ccc4c3P3(=O)CCCC3)n2)c(OC)cc1N1CCC(N2CCN(CCc3cccc4c3C(C)(C)C(=O)N4C3CCC(=O)NC3=O)CC2)CC1 (stereo not shown) [Example 73, 3-(4-(2-(4-(1-(4-((5-bromo-4-((2-methyl-5-(1-oxidophospholan-1-yl)quinolin-6-yl)amino)pyrimidin-2-yl)amino)-2-ethyl-5-methoxyphenyl)piperidin-4-yl)piperazin-1-yl)ethyl)-3,3-dimethyl-2-oxoindolin-1-yl)piperidine-2,6-dione]
Dmax H1975 #28 [1]: 78.13%

DC50 [1]: 0.77 nM
DC50 [2]: 1.82 nM
Dmax [2]: 91.8%
SMILES: CCc1cc(Nc2ncc(Br)c(Nc3ccc4nc(C)ccc4c3P3(=O)CC=CC3)n2)c(OC)cc1N1CCC(N2CCN(CCc3ccc4c(c3)oc(=O)n4C3CCC(=O)NC3=O)CC2)CC1 (stereo not shown) [Example 145, 3-(6-(2-(4-(1-(4-((5-bromo-4-((2-methyl-5-(1-oxido-2,5-dihydrophosphol-1-yl)quinolin-6-yl)amino)pyrimidin-2-yl)amino)-2-ethyl-5-methoxyphenyl)piperidin-4-yl)piperazin-1-yl)ethyl)-2-oxobenzo[d]oxazol-3(2H)-yl)piperidine-2,6-dione]
Dmax H1975 #28 [1]: 75.97%
